Reference: patent publication EP0091302A1, “Beta-lactam derivatives” (BEECHAM GROUP PLC, priority 1982, dated 1983)

Assays:
Experiment in all cases: Antibacterial activity (MIC)
Assay type in all cases: cell-based
Ps. aeruginosa 10662 = settings: Pseudomonas aeruginosa
N catarrhalis 1502 = tested on: N catarrhalis 1502
E. coli ESS = settings: Escherichia coli
E. coli JT4 = settings: Escherichia coli
[1] = tested on: Ps aeruginosa Dalgleish 10-^2
Ps. aeruginosa Dalgleish = settings: Pseudomonas aeruginosa
[2] = Pseudomonas aeruginosa, Ps. aeruginosa 10^-2

Compound | MIC (Ps. aeruginosa 10662) [µg/mL] | MIC (N catarrhalis 1502) [µg/mL] | MIC (E. coli ESS) [µg/mL] | MIC (E. coli JT4) [µg/mL] | MIC ([1]; Ps aeruginosa Dalgleish 10-^2) [µg/mL] | MIC [1, 2] [µg/mL] | MIC (Ps. aeruginosa Dalgleish) [µg/mL]
CO[C@@]1(NC(=O)C(c2cc(N)c(O)c(O)c2)S(=O)(=O)O)C(=O)N2[C@@H](C(=O)O)C(C)(C)S[C@@H]21 (stereo partly drawn) [Example 1, Disodium 6,β-[R,S-2-(5-amino-3,4-dihydroxyphenyl)-2-sulphoacetamido]-6,α-methoxy penicillanate] | 50 | < 0.2 | 5 | 25 | 50 |  | 
CO[C@@]1(NC(=O)C(c2cc(O)c(O)c([N+](=O)[O-])c2)S(=O)(=O)O)C(=O)N2[C@@H](C(=O)O)C(C)(C)S[C@@H]21 (stereo partly drawn) [Example 2, Disodium 6,β-[R,S-2-(3,4-dihydroxy-5-nitrophenyl)-2-sulphoacetamido]-6,α-methoxypenicillanate] | 5 | < 0.02 | 0.2 | 2.5 | 1 |  | 
CO[C@@]1(NC(=O)[C@@H](c2cc(Cl)c(OC(C)=O)c(OC(C)=O)c2)S(=O)(=O)O)C(=O)N2[C@@H](C(=O)O)C(C)(C)S[C@@H]21 [Example 4v, Disodium 6,β-[R-2-(3-chloro-4,5-diacetoxyphenyl)-2-sulphoacetamido]-6,a-methoxypenicillanate] | 0.5 | < 0.01 | 0.05 | 0.25 |  | 0.25 | 
CO[C@@]1(NC(=O)[C@@H](c2cc(O)c(O)c(Cl)c2)S(=O)(=O)O)C(=O)N2[C@@H](C(=O)O)C(C)(C)S[C@@H]21 [Example 4vi, Disodium 6,B-[R-2-(3-chloro-4,5-dihydroxyphenyl)-2-sulphoacetamido]-6,a-methoxypenicillanate] | 2.5 | < 0.02 | 0.05 | 0.5 |  | 0.5 | 
CO[C@@]1(NC(=O)[C@@H](c2cc(OC(C)=O)c(OC(C)=O)cc2Cl)S(=O)(=O)O)C(=O)N2[C@@H](C(=O)O)C(C)(C)S[C@@H]21 [Example 5, Disodium 6,B-[R-2-(2-chloro-4,5-diacetoxyphenyl)-2-sulphoacetamido]-6,a-methoxypenicillanate] | 5 | < 0.02 | 0.2 | 0.5 |  | 1 | 
CO[C@@]1(NC(=O)[C@@H](c2cc(OC(C)=O)c(OC(C)=O)cc2C)S(=O)(=O)O)C(=O)N2[C@@H](C(=O)O)C(C)(C)S[C@@H]21 [Example 6vi, Disodium 6,β-[R-2-(4,5-diacetoxy-2-methylphenyl)-2-sulphoacetamido]-6,a-methoxypenicillanate] | 16 |  | 4 | 16 |  |  | 4
CO[C@@]1(NC(=O)[C@H](c2cc(OC(C)=O)c(OC(C)=O)cc2C)S(=O)(=O)O)C(=O)N2[C@@H](C(=O)O)C(C)(C)S[C@@H]21 [Example 6vii, Disodium 6,β-[S-2-(4,5-diacetoxy-2-methylphenyl)-2-sulphoacetamido]-6,a-methoxypenicillanate] | 128 |  | 32 | 64 |  |  | 128
CO[C@@]1(NC(=O)[C@@H](c2cc(C)c(OC(C)=O)c(OC(C)=O)c2)S(=O)(=O)O)C(=O)N2[C@@H](C(=O)O)C(C)(C)S[C@@H]21 [Example 7, Disodium 6,β-[R-2-(4,5-diacetoxy-3-methylphenyl)-2-sulphoacetamido]-6,a-methoxypenicillanate] | 16 |  | 0.5 | 8 |  |  | 8
CO[C@@]1(NC(=O)[C@@H](c2cc(OC(C)=O)c(OC(C)=O)c(Cl)c2Cl)S(=O)(=O)O)C(=O)N2[C@@H](C(=O)O)C(C)(C)S[C@@H]21 [Example 8, Disodium 6,β-[R-2-(4,5-diacetoxy-2,3-dichlorophenyl)-2-sulphoacetamido]-6,a-methoxypenicillanate] | 2 |  | 0.25 | 1 |  |  | 2
